Test results reported in ChEMBL document CHEMBL2073890, “Multispecific amphipathic substrate transport by an organic anion transporter of human liver” (J Hepatol, 1996).

How the values were obtained:
Assay type in all cases: functional, cell-based, Oocyte
[1] = biological target: T1, Solute carrier organic anion transporter family member 1A2 (OATP1A2) (Homo sapiens, UniProt P46721); assay: TP_TRANSPORTER: uptake in Xenopus laevis oocytes
T1 sequence (P46721 whole entry): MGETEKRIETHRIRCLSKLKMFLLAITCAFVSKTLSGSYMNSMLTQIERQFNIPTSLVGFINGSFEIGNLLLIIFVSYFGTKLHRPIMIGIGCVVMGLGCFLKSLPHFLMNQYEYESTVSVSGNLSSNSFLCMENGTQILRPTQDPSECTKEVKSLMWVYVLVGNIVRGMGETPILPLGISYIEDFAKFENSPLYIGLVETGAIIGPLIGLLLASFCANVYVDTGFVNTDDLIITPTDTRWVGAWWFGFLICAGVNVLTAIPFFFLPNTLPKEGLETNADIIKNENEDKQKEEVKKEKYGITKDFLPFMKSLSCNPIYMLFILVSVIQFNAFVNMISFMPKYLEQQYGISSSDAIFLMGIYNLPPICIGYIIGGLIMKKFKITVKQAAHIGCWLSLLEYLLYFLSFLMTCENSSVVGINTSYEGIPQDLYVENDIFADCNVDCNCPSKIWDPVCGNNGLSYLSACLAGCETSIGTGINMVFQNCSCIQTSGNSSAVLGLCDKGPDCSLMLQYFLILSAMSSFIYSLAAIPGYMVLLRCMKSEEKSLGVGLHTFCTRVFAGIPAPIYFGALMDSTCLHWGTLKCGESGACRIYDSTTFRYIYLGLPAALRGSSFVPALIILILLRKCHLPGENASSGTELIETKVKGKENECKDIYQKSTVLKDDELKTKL

[2] = biological target: T1, Solute carrier organic anion transporter family member 1A2 (OATP1A2); assay: TP_TRANSPORTER: inhibition of E1S uptake (E1S: 0.2 uM, TCDC: 100 uM) in Xenopus laevis oocytes; settings: probe E1S (estrone sulfate)
[3] = biological target: T1, Solute carrier organic anion transporter family member 1A2 (OATP1A2); assay: TP_TRANSPORTER: inhibition of Ouabain uptake (Ouabain: 100 uM, TCDC: 100 uM) in Xenopus laevis oocytes; settings: probe Ouabain

inhibition at 100 µM [2]	inhibition at 100 µM [3]	Compound	Km [1]
		C[C@]12CC[C@@H]3c4ccc(OS(=O)(=O)O)cc4CC[C@H]3[C@@H]1CCC2=O [ESTRONE SULFURIC ACID]	59 µM
		C[C@@H]1O[C@@H](O[C@H]2C[C@@H](O)[C@]3(CO)[C@H]4[C@H](O)C[C@]5(C)[C@@H](C6=CC(=O)OC6)CC[C@]5(O)[C@@H]4CC[C@]3(O)C2)[C@H](O)[C@H](O)[C@H]1O [OUABAIN]	5500 µM
91%	100%	C[C@H](CCC(=O)NCCS(=O)(=O)O)[C@H]1CC[C@H]2[C@@H]3[C@H](O)C[C@@H]4C[C@H](O)CC[C@]4(C)[C@H]3CC[C@]12C [TAUROCHENODEOXYCHOLATE]	
